Earlier results as cited in patent US20240350489A1, “LOU064 FOR TREATING MULTIPLE SCLEROSIS” (NOVARTIS AG, priority 2021, published 2024).
Entries after “also recorded” stand apart in the source; their conditions may differ. Read-outs that look alike come from different tables or passages of the source.

What was measured:
[1] = test system: experimental autoimmune encephalomyelitis (EAE); details: cited from earlier work
[2] = cited from earlier work
[3] = cited from earlier work; remark: listed apart in the source

Compound	efficacy in EAE ([1]; 3 mg/kg)	efficacy in EAE ([1]; 10 mg/kg vs 3 mg/kg)	elevations of ALT, AST and lipase ([2]; 75 mg once daily and twice daily)	brain lesions and relapses ([2]; 75 mg once or twice per day vs placebo or dimethyl fumarate)	dose-limiting side effects ([3]; human, in vivo)	MS lesion development ([3]; mid-stage trials)	most frequent adverse events ([3]; mid-stage trials)
C=CC(=O)N1CCC(CNc2ncnc(N)c2-c2ccc(Oc3ccccc3)cc2)CC1 [evobrutinib]	effective	did not further improve the effect	dose-limiting liver enzyme elevations; also recorded: higher frequency of elevations	trend toward developing fewer brain lesions and experiencing fewer relapses	–	–	–
C=CC(=O)N1CCC[C@@H](n2c(=O)n(-c3ccc(Oc4ccccc4)cc3)c3c(N)nccc32)C1 [tolebrutinib]	–	–	–	–	dose-limiting diarrhea	reduction in MS lesion development	headaches and cold-like symptoms
